Measurements taken from paper PMC6463727, “Rational design of a heterotrimeric G protein α subunit with artificial inhibitor sensitivity” (The Journal of Biological Chemistry, 2019).
Residue numbers refer to the chain shown, from its start. Numbered stars: 1 amine (or outer) side, 2 acyl side, 3 side chain; on linkers, the order of the positions; unused ones are H or OH. Bridge positions count the residues as written; N and C are the ends. Square brackets hold non-standard residues; d marks the D form. Peptide text beside a SMILES is read from it. X2 = CC(=O)NC(C(=O)OC(C(C)C)C(N[*:1])C(=O)[*:2])C(O)C(C)C; PhLac = O=C(O)[CH](O)Cc1ccccc1; NMeT = CN[CH](C(=O)O)[CH](C)O; NMeA = CN[CH](C)C(=O)O; NMeDha = C=C(NC)C(=O)O

Legend:
Assay in all cases: cell-based
Settings in all cases: read-out: YM pIC50 (converted)
Gα16 (G16 WT) S185V = target: T1, Gα16 (G16 WT) S185V (Homo sapiens, UniProt P30679, S185V); set-up: species or system HEK293 Gαq/Gα11-null (CRISPR/Cas9), transfected Gα
T1 construct: gene GNA15; human Gα16 cDNA in pcDNA3.1(+), expressed in CRISPR/Cas9 Gαq/Gα11-null HEK293 cells (transient); endogenous Gβγ
T1 sequence (P30679 1-374 S185V): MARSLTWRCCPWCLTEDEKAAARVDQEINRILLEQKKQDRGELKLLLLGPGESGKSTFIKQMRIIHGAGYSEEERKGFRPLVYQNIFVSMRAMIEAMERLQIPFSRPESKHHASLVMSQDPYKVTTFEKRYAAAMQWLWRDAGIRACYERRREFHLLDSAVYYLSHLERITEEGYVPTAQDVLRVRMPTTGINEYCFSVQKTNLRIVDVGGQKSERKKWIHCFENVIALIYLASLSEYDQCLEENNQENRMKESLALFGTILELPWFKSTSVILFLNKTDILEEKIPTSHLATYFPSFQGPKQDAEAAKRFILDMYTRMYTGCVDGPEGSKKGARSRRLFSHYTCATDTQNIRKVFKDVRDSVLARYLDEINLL
Procedure: Quantification of DMR signals was performed by calculation of the maximum responses. Data points from concentration-response or inhibition curves of individual functional experiments were fitted to the following four-parameter logistic function. (Eq. 1) Y=Bottom+(Top−Bottom)/1+10^(logEC50−x)slope Concentration-effect curves represented in figures were normalized by setting each experimental maximal effect as 100% response. All data are expressed as mean + or ± S.E. of at least three independent experiments performed in technical triplicates. […] Because none of our mutant proteins were […], we searched for additional residues that, when mutated, may incur activity loss for the two depsipeptides. We focused our attention on residues that (i) differed between Gαq and Gα16, (ii) were not addressed previously by mutagenesis, and (iii) were located on both linkers, including adjacent regions, to either directly interact with the depsipeptides (if side-chain or Gα atoms were within 5 Å to YM) or to be close enough to assist in stabilizing the inhibitor–protein interactions. Aspartate 71 (Asp-71) and valine 182 (Val-182) fulfilled these criteria (Fig. 3A; see also Fig. 2A): Asp-71 is part of an aspartic acid–arginine salt bridge that likely provides the interface between the depsipeptides and linker 1 by stabilizing and maintaining the inhibitor–linker 1 spacing (Fig. 3B). […]

Gα16 (G16 WT) C196P = target: T2, Gα16 (G16 WT) C196P (Homo sapiens, UniProt P30679, C196P); set-up: species or system HEK293 Gαq/Gα11-null (CRISPR/Cas9)
T2 construct: gene GNA15; human Gα16 cDNA in pcDNA3.1(+), expressed in CRISPR/Cas9 Gαq/Gα11-null HEK293 cells (transient); endogenous Gβγ
T2 sequence (P30679 1-374 C196P): T1 sequence (P30679 1-374 S185V) with V185S, C196P
Procedure: (§1) Successful mutations were verified by DNA sequencing. Subconfluent cell cultures were transiently transfected with the respective expression plasmids using the polyethylenimine reagent (Polysciences, Warrington, PA) following the protocol provided by the manufacturer. All data were analyzed using GraphPad Prism 8.0.0 (GraphPad Inc., La Jolla, CA). Quantification of DMR signals was performed by calculation of the maximum responses. Data points from concentration-response or inhibition curves of individual functional experiments were fitted to the following four-parameter logistic function. (Eq. 1) Y=Bottom+(Top−Bottom)/1+10^(logEC50−x)slope Concentration-effect curves represented in figures were normalized by setting each experimental maximal effect as 100% response. All data are expressed as mean + or ± S.E. of at least three independent experiments performed in technical triplicates.

Gα16 (G16 WT) M187V = target: T3, Gα16 (G16 WT) M187V (Homo sapiens, UniProt P30679, M187V); set-up: species or system HEK293 Gαq/Gα11-null (CRISPR/Cas9)
T3 construct: gene GNA15; human Gα16 cDNA in pcDNA3.1(+), expressed in CRISPR/Cas9 Gαq/Gα11-null HEK293 cells (transient); endogenous Gβγ
T3 sequence (P30679 1-374 M187V): T1 sequence (P30679 1-374 S185V) with V185S, M187V
Procedure: as §1

Gα16 (G16 WT) E74D = target: T4, Gα16 (G16 WT) E74D (Homo sapiens, UniProt P30679, E74D); set-up: species or system HEK293 Gαq/Gα11-null (CRISPR/Cas9)
T4 construct: gene GNA15; human Gα16 cDNA in pcDNA3.1(+), expressed in CRISPR/Cas9 Gαq/Gα11-null HEK293 cells (transient); endogenous Gβγ
T4 sequence (P30679 1-374 E74D): T1 sequence (P30679 1-374 S185V) with E74D, V185S
Procedure: as §1

`C=C1C(=O)NC(C)C(=O)N(C)C(C)C(=O)NC(C(OC(=O)C(NC(C)=O)C(O)C(C)C)C(C)C)C(=O)N(C)C(C(C)OC)C(=O)OC(C)C(NC(C)=O)C(=O)OC(Cc2ccccc2)C(=O)N1C` (stereo not shown) [YM, YM-254890] (Ac-T[PhLac][NMeDha]A[NMeA][X2][NMeT](Me); ester 1-C; configuration not given here) was tested, and the IC50 (Gα16 (G16 WT) S185V) was about 316 µM, the IC50 (Gα16 (G16 WT) C196P) was over 1000 µM and the IC50 (Gα16 (G16 WT) M187V) was over 1000 µM. It also gave an IC50 (Gα16 (G16 WT) E74D) of over 1000 µM.
